Legend:
SW1573 = experiment: cells; format: functional, cell-based, Homo sapiens;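 also: growth inhibition of SW1573 cells, read out with a cell viability assay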
Description: SANGER: Inhibition of human SW1573 cell growth in a cell viability assay.

TYK-nu = experiment: cells; format: functional, cell-based, Homo sapiens;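 also: growth inhibition of human TYK-nu cells, read out by a cell viability assay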
Description: SANGER: Inhibition of human TYK-nu cell growth in a cell viability assay.

FTC-133 = experiment: cells; format: functional, cell-based, Homo sapiens
S-117 = experiment: cells; format: functional, cell-based, Homo sapiens
Description: SANGER: Inhibition of human S-117 cell growth in a cell viability assay.

NCI-H2122 = experiment: cells; format: functional, cell-based, Homo sapiens;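 also: growth inhibition of the cells, read out with a cell viability assay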
Description: SANGER: Inhibition of human NCI-H2122 cell growth in a cell viability assay.

HAL-01 = experiment: cells; format: functional, cell-based, Homo sapiens;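 also: growth inhibition of human HAL-01 cells, read out with a cell viability assay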
Description: SANGER: Inhibition of human HAL-01 cell growth in a cell viability assay.

Hs-578T = experiment: cells; format: functional, cell-based, Homo sapiens
Description: SANGER: Inhibition of human Hs-578-T cell growth in a cell viability assay.

769-P = experiment: cells; format: functional, cell-based, Homo sapiens
Description: SANGER: Inhibition of human 769-P cell growth in a cell viability assay.

Calu-3 = experiment: cells; format: functional, cell-based, Homo sapiens;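 also: growth inhibition of human Calu-3 cells, determined with a cell viability assay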
Description: SANGER: Inhibition of human Calu-3 cell growth in a cell viability assay.

SCC-9 = experiment: cells; format: functional, cell-based, Homo sapiens;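 also: Read-out is a cell viability assay, with values giving inhibition of cell growth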
Description: SANGER: Inhibition of human SCC-9 cell growth in a cell viability assay.

EFM-19 = experiment: cells; format: functional, cell-based, Homo sapiens;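 also: growth inhibition of human EFM-19 cells, measured in a cell viability assay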
Description: SANGER: Inhibition of human EFM-19 cell growth in a cell viability assay.

LS-411N = experiment: cells; format: functional, cell-based, Homo sapiens
C32 = experiment: cells; format: functional, cell-based, Homo sapiens;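 also: cell viability assay, with IC50 reflecting inhibition of C32 cell growth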
Description: SANGER: Inhibition of human C32 cell growth in a cell viability assay.

HD-MY-Z = experiment: cells; format: functional, cell-based, Homo sapiens;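 also: growth inhibition of HD-MY-Z cells, read out with a cell viability assay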
Description: SANGER: Inhibition of human HD-MY-Z cell growth in a cell viability assay.

AN3-CA = experiment: cells; format: functional, cell-based, Homo sapiens;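 also: growth inhibition of human AN3-CA cells measured by a cell viability assay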
Description: SANGER: Inhibition of human AN3-CA cell growth in a cell viability assay.

Daoy = experiment: cells; format: functional, cell-based, Homo sapiens;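 also: daoy cell growth inhibition, read out as cell viability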
Description: SANGER: Inhibition of human Daoy cell growth in a cell viability assay.

KYSE-140 = experiment: cells; format: functional, cell-based, Homo sapiens;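 also: cell viability assay measuring growth inhibition in human KYSE-140 cells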
Description: SANGER: Inhibition of human KYSE-140 cell growth in a cell viability assay.

CFPAC-1 = experiment: cells; format: functional, cell-based, Homo sapiens; settings: Homo sapiens, CFPAC-1;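 also: cell viability readout used to gauge suppression of CFPAC-1 cell proliferation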
Description: SANGER: Inhibition of human CFPAC-1 cell growth in a cell viability assay.

EW-16 = experiment: cells; format: functional, cell-based, Homo sapiens;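 also: growth inhibition of human EW-16 cells, read out as cell viability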
Description: SANGER: Inhibition of human EW-16 cell growth in a cell viability assay.

C2BBe1 = experiment: cells; format: functional, cell-based, Homo sapiens;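 also: growth inhibition of C2BBe1 cells, read out through a viability assay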
Description: SANGER: Inhibition of human C2BBe1 cell growth in a cell viability assay.

DU-4475 = experiment: cells; format: functional, cell-based, Homo sapiens
Description: SANGER: Inhibition of human DU-4475 cell growth in a cell viability assay.

BEN = experiment: cells; format: functional, cell-based, Homo sapiens;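 also: growth inhibition of the BEN cell line, read out with a cell viability assay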
Description: SANGER: Inhibition of human BEN cell growth in a cell viability assay.

SK-PN-DW = experiment: cells; format: functional, cell-based, Homo sapiens;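 also: growth inhibition measured with a viability assay on these cells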
Description: SANGER: Inhibition of human SK-PN-DW cell growth in a cell viability assay.

TE-8 = experiment: cells; format: functional, cell-based, Homo sapiens;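 also: growth inhibition of TE-8 cells, measured with a cell viability readout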
Description: SANGER: Inhibition of human TE-8 cell growth in a cell viability assay.

COLO-684 = experiment: cells; format: functional, cell-based, Homo sapiens
Description: SANGER: Inhibition of human COLO-684 cell growth in a cell viability assay.

KGN = experiment: cells; format: functional, cell-based, Homo sapiens;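 also: growth inhibition of KGN cells, read out with a cell viability assay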
Description: SANGER: Inhibition of human KGN cell growth in a cell viability assay.

NCI-H446 = experiment: cells; format: functional, cell-based, Homo sapiens;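 also: growth inhibition of NCI-H446 cells determined by a cell viability assay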
Description: SANGER: Inhibition of human NCI-H446 cell growth in a cell viability assay.

no-10 = experiment: cells; format: functional, cell-based, Homo sapiens;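 also: growth inhibition of no-10 cells, read out with a cell viability assay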
Description: SANGER: Inhibition of human no-10 cell growth in a cell viability assay.

MDA-MB-231 = experiment: cells; format: functional, cell-based, Homo sapiens
Description: SANGER: Inhibition of human MDA-MB-231 cell growth in a cell viability assay.

C-33-A = experiment: cells; format: functional, cell-based, Homo sapiens;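 also: cell viability assay measuring growth inhibition of C-33-A cells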
Description: SANGER: Inhibition of human C-33-A cell growth in a cell viability assay.

PANC-08-13 = experiment: cells; format: functional, cell-based, Homo sapiens
Description: SANGER: Inhibition of human PANC-08-13 cell growth in a cell viability assay.

JAR = experiment: cells; format: functional, cell-based, Homo sapiens;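 also: growth inhibition of human JAR cells determined with a cell viability assay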
Description: SANGER: Inhibition of human JAR cell growth in a cell viability assay.

GCIY = experiment: cells; format: functional, cell-based, Homo sapiens;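 also: growth inhibition of the human GCIY cell line, read out by a cell viability assay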
Description: SANGER: Inhibition of human GCIY cell growth in a cell viability assay.

RCC10RGB = experiment: cells; format: functional, cell-based, Homo sapiens;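 also: growth inhibition of human RCC10RGB cells, read out by a cell viability assay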
Description: SANGER: Inhibition of human RCC10RGB cell growth in a cell viability assay.

Ca-Ski = experiment: cells; format: functional, cell-based, Homo sapiens;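 also: cell viability assay measuring inhibition of Ca-Ski cell growth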
Description: SANGER: Inhibition of human Ca-Ski cell growth in a cell viability assay.

NCI-H1563 = experiment: cells; format: functional, cell-based, Homo sapiens;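 also: growth inhibition of human NCI-H1563 cells, read out with a cell viability assay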
Description: SANGER: Inhibition of human NCI-H1563 cell growth in a cell viability assay.

ES6 = experiment: cells; format: functional, cell-based, Homo sapiens;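 also: growth inhibition of human ES6 cells, read out with a cell viability assay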
Description: SANGER: Inhibition of human ES6 cell growth in a cell viability assay.

OE33 = experiment: cells; format: functional, cell-based, Homo sapiens;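 also: growth inhibition of human OE33 cells, measured by a cell viability assay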
Description: SANGER: Inhibition of human OE33 cell growth in a cell viability assay.

BL-41 = experiment: cells; format: functional, cell-based, Homo sapiens; settings: bl-41;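 also: growth inhibition of human BL-41 cells, read out with a cell viability assay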
Description: SANGER: Inhibition of human BL-41 cell growth in a cell viability assay.

SNU-16 = experiment: cells; format: functional, cell-based, Homo sapiens; settings: snu-16;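 also: growth inhibition of human SNU-16 cells, determined with a cell viability readout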
Description: SANGER: Inhibition of human NCI-SNU-16 cell growth in a cell viability assay.

NCI-H2171 = experiment: cells; format: functional, cell-based, Homo sapiens; settings: nci-h2171;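 also: growth inhibition of human NCI-H2171 cells, read out by a cell viability assay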
Description: SANGER: Inhibition of human NCI-H2171 cell growth in a cell viability assay.

NCI-H1522 = experiment: cells; format: functional, cell-based, Homo sapiens; settings: nci-h1522;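 also: growth inhibition of NCI-H1522 cells, read out with a cell viability assay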
Description: SANGER: Inhibition of human NCI-H1522 cell growth in a cell viability assay.

MC-CAR = experiment: cells; format: functional, cell-based, Homo sapiens; settings: mc-car;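 also: growth inhibition of the human MC-CAR cell line, read out by a cell viability assay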
Description: SANGER: Inhibition of human MC-CAR cell growth in a cell viability assay.

UO-31 = experiment: cells; format: functional, cell-based, Homo sapiens; settings: uo-31
Description: SANGER: Inhibition of human U031 cell growth in a cell viability assay.

NCI-H510A = experiment: cells; format: functional, cell-based, Homo sapiens; settings: nci-h510a;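 also: growth inhibition of NCI-H510A cells, read out with a cell viability assay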
Description: SANGER: Inhibition of human NCI-H510A cell growth in a cell viability assay.

SU-DHL-1 = experiment: SANGER: Inhibition of human SU-DHL-1 cell growth in a cell viability assay.; format: functional, cell-based; settings: su-dhl-1
D-542MG = experiment: cells; format: functional, cell-based, Homo sapiens; settings: d-542mg
Description: SANGER: Inhibition of human D-542MG cell growth in a cell viability assay.

DMS-153 = experiment: cells; format: functional, cell-based, Homo sapiens; settings: dms-153
Description: SANGER: Inhibition of human DMS-153 cell growth in a cell viability assay.

P31-FUJ = experiment: cells; format: functional, cell-based, Homo sapiens; settings: p31-fuj;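 also: growth inhibition of P31-FUJ cells, read out with a viability assay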
Description: SANGER: Inhibition of human P31-FUJ cell growth in a cell viability assay.

Cn1cnc2c(F)c(Nc3ccc(Br)cc3Cl)c(C(=O)NOCCO)cc21 [SELUMETINIB]
IC50 (SW1573; Homo sapiens, SW1573): > 4 µM
IC50 (TYK-nu; Homo sapiens, TYK-nu): > 4 µM
IC50 (FTC-133; Homo sapiens, FTC-133): > 4 µM
IC50 (S-117; Homo sapiens, S-117): > 4 µM
IC50 (NCI-H2122; Homo sapiens, NCI-H2122): > 4 µM
IC50 (HAL-01; Homo sapiens, HAL-01): 1.7 µM
IC50 (Hs-578T; Homo sapiens, Hs-578T): > 4 µM
IC50 (769-P; Homo sapiens, 769-P): 3.74 µM
IC50 (Calu-3; Homo sapiens, Calu-3): > 4 µM
IC50 (SCC-9; Homo sapiens, SCC-9): > 4 µM
IC50 (EFM-19; Homo sapiens, EFM-19): > 4 µM
IC50 (LS-411N; Homo sapiens, LS-411N): > 4 µM
IC50 (C32; Homo sapiens, C32): 0.0982 µM
IC50 (HD-MY-Z; Homo sapiens, HD-MY-Z): > 4 µM
IC50 (AN3-CA; Homo sapiens, AN3-CA): > 4 µM
IC50 (Daoy; Homo sapiens, Daoy): > 4 µM
IC50 (KYSE-140; Homo sapiens, KYSE-140): > 4 µM
IC50 (CFPAC-1): > 4 µM
IC50 (EW-16; Homo sapiens, EW-16): > 4 µM
IC50 (C2BBe1; Homo sapiens, C2BBe1): 0.273 µM
IC50 (DU-4475; Homo sapiens, DU-4475): 0.0337 µM
IC50 (BEN; Homo sapiens, BEN): > 4 µM
IC50 (SK-PN-DW; Homo sapiens, SK-PN-DW): > 4 µM
IC50 (TE-8; Homo sapiens, TE-8): > 4 µM
IC50 (COLO-684; Homo sapiens, COLO-684): > 4 µM
IC50 (KGN; Homo sapiens, KGN): > 4 µM
IC50 (NCI-H446; Homo sapiens, NCI-H446): > 4 µM
IC50 (no-10; Homo sapiens): > 4 µM
IC50 (MDA-MB-231; Homo sapiens, MDA-MB-231): > 4 µM
IC50 (C-33-A; Homo sapiens, C-33-A): > 4 µM
IC50 (PANC-08-13; Homo sapiens, PANC-08-13): > 4 µM
IC50 (JAR; Homo sapiens, JAR): > 4 µM
IC50 (GCIY; Homo sapiens, GCIY): > 4 µM
IC50 (RCC10RGB; Homo sapiens, RCC10RGB): > 4 µM
IC50 (Ca-Ski; Homo sapiens, Ca-Ski): > 4 µM
IC50 (NCI-H1563; Homo sapiens, NCI-H1563): > 4 µM
IC50 (ES6; Homo sapiens, ES6): > 4 µM
IC50 (OE33; Homo sapiens, OE33): > 4 µM

BLEOMYCIN
IC50 (SW1573; sw1573): 0.137 µM
IC50 (TYK-nu; tyk-nu): 3.03 µM
IC50 (FTC-133; ftc-133): 1.29 µM
IC50 (S-117; s-117): 90.2 µM
IC50 (NCI-H2122; nci-h2122): 0.51 µM
IC50 (BL-41): 14.2 µM
IC50 (HAL-01; hal-01): 0.000453 µM
IC50 (Hs-578T; hs-578-t): 344 µM
IC50 (769-P; 769-p): 0.123 µM
IC50 (Calu-3; calu-3): 6.19 µM
IC50 (SCC-9; scc-9): 403 µM
IC50 (EFM-19; efm-19): 0.0148 µM
IC50 (SNU-16): 16100 µM
IC50 (LS-411N; ls-411n): 0.0528 µM
IC50 (C32; c32): 471 µM
IC50 (HD-MY-Z; hd-my-z): 0.56 µM
IC50 (AN3-CA; an3-ca): 2.55 µM
IC50 (Daoy; daoy): 0.083 µM
IC50 (KYSE-140; kyse-140): 3.9 µM
IC50 (NCI-H2171): 1420 µM
IC50 (EW-16; ew-16): 0.00685 µM
IC50 (NCI-H1522): 2450 µM
IC50 (MC-CAR): 1.4 µM
IC50 (C2BBe1; c2bbe1): 91.8 µM
IC50 (DU-4475; du-4475): 1.27 µM
IC50 (BEN; ben): 46 µM
IC50 (SK-PN-DW; sk-pn-dw): 1.45 µM
IC50 (TE-8; te-8): 0.377 µM
IC50 (UO-31): 0.934 µM
IC50 (NCI-H510A): 1.09 µM
IC50 (COLO-684; colo-684): 237 µM
IC50 (KGN; kgn): 0.00371 µM
IC50 (NCI-H446; nci-h446): 18.9 µM
IC50 (no-10): 27.1 µM
IC50 (MDA-MB-231; mda-mb-231): 0.273 µM
IC50 (C-33-A; c-33-a): 0.432 µM
IC50 (PANC-08-13; panc-08-13): 12.1 µM
IC50 (SU-DHL-1): 2.05 µM
IC50 (JAR; jar): 206 µM
IC50 (GCIY; gciy): 12.8 µM
IC50 (D-542MG): 60.3 µM
IC50 (RCC10RGB; rcc10rgb): 70.6 µM
IC50 (Ca-Ski; ca-ski): 0.798 µM
IC50 (NCI-H1563; nci-h1563): 20.6 µM
IC50 (DMS-153): 165 µM
IC50 (ES6; es6): 0.406 µM
IC50 (P31-FUJ): 460 µM
IC50 (OE33; oe33): 2.75 µM

Source: ChEMBL document CHEMBL1201861, “Genomics of Drug Sensitity in Cancer screening data, Wellcome Trust Sanger Institute”
